Measurements as given in patent US20260355142A1, “AMORPHOUS OTE[…] COMPOSITIONS AND USES THEREOF AND DOSAGE REGIMENS FOR OTENAPROXESUL” (ANTIBE THERAPEUTICS INC., priority 2022, published 2026).

Experiments:
[1] = Phase 1 SAD/MAD clinical trial, safety and tolerability; type: in vivo, human
Description: Otenaproxesul (crystalline form) was orally administered at a range of doses to healthy volunteers, both as a single dose, and as a daily (or twice-daily) dose for 14 days. Each cohort consisted of 8 subjects, with 6 receiving otenaproxesul and 2 receiving placebo. A total of 8 cohorts were studied in the single-dose study (25 mg, 75 mg, 150 mg, 300 mg, 500 mg, 1000 mg, 1500 mg and 2000 mg), and 3 cohorts in the multiple-dose study (250 and 750 once daily, and 750 mg bid (e.g., 1500 mg/day) for 14 days). All adverse events were recorded, and blood samples were drawn prior to and for at least 72 h after drug administration for measurement of otenaproxesul-derived naproxen levels. Routine cardiovascular, renal, hepatic and hematological biomarkers were monitored, along with clinical signs. Multiple ascending dose studies examined otenaproxesul at doses of 250 and 750 mg once daily, and 750 mg twice daily.

[2] = tested on: osteoarthritis of the knee; assay: Phase 2b study, change in WOMAC subscale scores in osteoarthritis of the knee; type: in vivo, human; conditions: for WOMAC pain, stiffness and DPDA subscale scores: Baseline to Day 14
Description: This study evaluated the efficacy of a 14-day dosing regimen of crystalline otenaproxesul at doses of 150 mg, 200 mg and 250 mg compared to placebo in reducing osteoarthritis knee pain (a chronic pain condition) as measured by changes in the post-treatment Western Ontario and McMaster Universities Osteoarthritis Index (WOMAC) subscale pain score relative to each patient's pretreatment baseline WOMAC assessment. In patients with bilateral knee osteoarthritis, the most painful knee (index knee) or if in both knees of equal pain, then 1 index knee was noted and has been used for the WOMAC assessments throughout the study. The three doses were selected based on state-of-the-art knowledge of efficacy and safety for otenaproxesul at the time of the trial.
This study was a double-blind, placebo-controlled Phase 2B study that explored 3 different doses (150 mg, 200 mg, and 250 mg) of orally administered crystalline otenaproxesul in male and female patients diagnosed with osteoarthritis of the knee. Patients were randomly assigned in a 2:2:1:1 allocation ratio to otenaproxesul 250 mg, 200 mg, 150 mg, or placebo.
Study visits occurred on Day 1, Day 4, and Day 14 of the 14-day treatment phase and included WOMAC evaluations, blood samples for thromboxane B2 TXB2 and pharmacokinetic (PK) testing. The safety of otenaproxesul was evaluated through monitoring for adverse events (AEs), changes in physical examinations, vital signs measurements, and clinical laboratory evaluations.
The efficacy of treatment with otenaproxesul was assessed by measuring the change in the WOMAC VAS version 3.1 subscale pain, stiffness, and difficulties performing daily activities (DPDA) scores after 14 days relative to each patient's pretreatment baseline WOMAC score.
All patients who received 1 dose of study drug (otenaproxesul or placebo) and had at least 1 post-baseline WOMAC pain subscale score observation were included in the primary population for the analysis of efficacy (modified-intent-to-treat population [mITT]). Patients who met the criteria for the primary efficacy analyses and had no major protocol violations that could have impacted the assessment of efficacy (per protocol population [PP]) were evaluated as a supportive analysis. The primary and secondary endpoints were analyzed using a maximum likelihood mixed model repeated measure (MMRM). The model included treatment, visit, baseline WOMAC pain score, and treatment-by-visit interaction as fixed effects, and patient as a random effect. Dose-response analysis was conducted by using a contrast statement to the least squares (LS) means on Day 14 between the dose levels of otenaproxesul and placebo. For patients who received rescue medication within 12 hours before an efficacy assessment, the assessments at that visit were disregarded and considered missing. Analysis of the WOMAC pain subscale score, including the MMRM analysis and descriptive summary, were also presented by sex (male, female) in a subgroup analysis.

[3] = H2S release / formulation stability in simulated gastric fluid; conditions: SGF, 1 mg/ml, 37° C., 5% CO2
Description: (§1) Assay design: 1 mg of exemplary ASD no. 1 and crystalline otenaproxesul were weighed in separate glass vials. SGF was added to prepare a 1 mg/ml solution which was incubated at 37° C. with 5% CO2. 120 μl was removed at 0, 0.5, 1, 2, 3, 4 and 8 hrs and quenched in DPD and FeCl3 solutions. A blank and 10 mM stock was also analyzed. The methylene blue was analyzed using HPLC.
As H2S is volatile in the acidic form the calibration curve was not plotted, however H2S release was compared to T0.

TXB2 = assay: Pharmacodynamics in Beagle dogs, plasma TXB2; type: in vivo; conditions: 15 mg/kg, Day 1 and Day 4 pre-treatment
Description: The pharmacokinetics of five different formulations of otenaproxesul (formerly ATB-346) were evaluated in Beagle dogs. Five groups of dogs (n=3/group) were orally administered their assigned formulations once daily for four days. Blood samples were taken for a full 24-hour PK profile on Day 1 and on Day 4.
Group 1 was administered crystalline otenaproxesul, Group 2 was administered milled crystalline otenaproxesul, Group 3 was administered micro-milled crystalline otenaproxesul, Group 4 was administered exemplary ASD no. 1 (see Example 7A above) and Group 5 was administered exemplary ASD no. 4 (see Example 7A above). Dose administered was 15 mg/kg (human equivalent dose of 525 mg).
Pharmacodynamic assessment of TXB2 and PGE2 plasma concentrations were assessed on: • Day 1, one hour post treatment • Day 1, 12 hours post treatment • Day 4, pre-treatment • Day 4, one hour post treatment • Day 4, 12 hours post treatment.

[4] = H2S release / formulation stability in simulated intestinal fluid; conditions: SIF, 1 mg/ml, 37° C., 5% CO2
Description: as §1, with “SIF” for “SGF”, “at” for “at 0,”, “DPD (N,N-dimethyl-p-phenylenediamine sulfate)” for “DPD”, “solutions. A calibration curve was prepared to quantify amount of H2S released.” for “solutions.”

[5] = single dose, oral, 25 mg to 2000 mg, crystalline

For COc1ccc2cc([C@H](C)C(=O)Oc3ccc(C(N)=S)cc3)ccc2c1 [otenaproxesul, (S)-4-carbamothioylphenyl 2-(6-methoxynaphthalen-2-yl) propanoate], which tolerability ([1]; all single, once daily administered dose levels) is on record?
Its tolerability is “very well tolerated and shown to be safe”.

What about the “gastrointestinal, cardiovascular, renal or hematological findings” value [1, 5] of the same compound?
Its value is “nor were there any significant gastrointestinal, cardiovascular renal, or hematological findings”.

And the serious adverse events [1, 5]?
Its serious adverse events is “did not produce any serious adverse events”.

What about the “reduction in pain, stiffness and DPDA” value ([2]; 150 mg daily) of the same compound?
The value was “positive reduction in pain, stiffness and DPDA”.

And the “actual mean change in WOMAC stiffness score, Baseline to Day 14” value ([2]; 150 mg once daily, 95% CI −60.3, −36.6)?
The value was −48.4 mm.

And the “decrease in WOMAC DPDA score vs placebo” value ([2]; 150 mg, Day 14)?
The value was “not statistically significant”.

And the “decrease in WOMAC pain score vs placebo” value ([2]; 150 mg, Day 14)?
Its value is “not statistically significant”.

What about the “LS mean change in WOMAC stiffness score, Baseline to Day 14” value ([2]; 200 mg once daily, 95% CI −62.6, −46.3) of the same compound?
The value was −54.4 mm.

And the “LS mean change in WOMAC pain score, Baseline to Day 14” value ([2]; 200 mg once daily, 95% CI −159.3, −120.6)?
The value was −139.9 mm.

What about the “LS mean change in WOMAC DPDA score, Baseline to Day 14” value ([2]; 200 mg once daily, 95% CI −502.9, 374.1 (so in the source)) of the same compound?
The value was −438.5 mm.

What about the “LS mean change in WOMAC stiffness score, Baseline to Day 14” value ([2]; 250 mg once daily, 95% CI −63.5, −47.8) of the same compound?
Its value is −55.6 mm.

And the LS mean change in WOMAC pain score, Baseline to Day 14 ([2]; 250 mg once daily, 95% CI −154.0, −116.6)?
Its LS mean change in WOMAC pain score, Baseline to Day 14 is -135 mm.

What about the “LS mean change in WOMAC DPDA score, Baseline to Day 14” value ([2]; 250 mg once daily, 95% CI −475.1, −350.7) of the same compound?
The value was −412.9 mm.

What about the “patients having at least a 30% reduction in WOMAC pain scores” value ([2]; 250 mg, Day 14) of the same compound?
Its value is 63.4%.

What about the “patients having at least a 50% reduction in WOMAC pain scores” value ([2]; 250 mg, Day 14) of the same compound?
The value was 43.5%.

And the “WOMAC pain, stiffness and DPDA subscale scores” value [2]?
Its value is “clinically and statistically significant improvement”.

What about the “decreases in WOMAC stiffness and DPDA scores” value ([2]; men, 200 mg, Day 14) of the same compound?
The value was “reached statistical significance”.

What about the “decreases in WOMAC pain, stiffness and DPDA scores vs placebo” value ([2]; women, 250 mg and 200 mg, Day 14) of the same compound?
Its value is “reached statistical significance”.

What does the source list for COc1ccc2cc([C@H](C)C(=O)Oc3ccc(C(N)=S)cc3)ccc2c1 [crystalline otenaproxesul]?
Peak area of methylene blue (H2S release) ([3]; 0 hrs): 1.6; Peak area of methylene blue (H2S release) ([3]; 0.5 hrs): 2.4; Peak area of methylene blue (H2S release) ([3]; 1 hr): 2; Peak area of methylene blue (H2S release) ([3]; 2 hrs): 2.3; Peak area of methylene blue (H2S release) ([3]; 3 hrs): 1.8; Peak area of methylene blue (H2S release) ([3]; 4 hrs): 1.9; Peak area of methylene blue (H2S release) ([3]; 8 hrs): 2.4; inhibition of TXB2 relative to ASDs (TXB2): inhibition of TXB2 was lower; WOMAC pain, stiffness and DPDA subscale scores [2]: clinically and statistically significant improvement; H2S release ([4]; 0.5 hrs): 0.7 µM; H2S release ([4]; 1 hr): 0.7 µM; H2S release ([4]; 2 hrs): 1.2 µM; H2S release ([4]; 3 hrs): 2.2 µM; H2S release ([4]; 4 hrs): 3.7 µM; H2S release ([4]; 8 hrs): 8.5 µM
